# Measurements published in US20110245284A1, “Alkoxy- and Alkylthio-Substituted Anilinopyrimidines” (Bayer CropScience AG, priority 2008, published 2011).
# Like-named read-outs stand apart in the source and are kept apart here.
# Tests used:
# Fusarium proliferatum = test: Production of fumonisin FB1 by Fusarium proliferatum (microtitre plates; FB1 by HPLC-MS/MS, growth by OD620); format: cell-based; conditions: for IC50: Fusarium proliferatum, 144 h
# [1] = logP by HPLC on reversed-phase columns (C 18), method [a], acidic range pH 2.3; format: physicochemical; conditions: pH 2.3, logP (pH2.3)
# Description: (§1) The logP values were determined in accordance with EEC Directive 79/831 Annex V.A8 by HPLC (High Performance Liquid Chromatography) on reversed-phase columns (C 18), using the methods below:
# [a] The determination is carried out in the acidic range at pH 2.3 using the mobile phases 0.1% aqueous phosphoric acid and acetonitrile, linear gradient from 10% acetonitrile to 95% acetonitrile.
# [2] = logP by LC-MS on reversed-phase columns (C 18), method [b], acidic range pH 2.7; format: physicochemical; conditions: for chromatographic logP: pH 2.7, log p
# Description: as §1
# [b] The LC-MS determination in the acidic range is carried out at pH 2.7 using the mobile phases 0.1% aqueous formic acid and acetonitrile (contains 0.1% formic acid), linear gradient from 10% acetonitrile to 95% acetonitrile.
# Leptosphaeria nodorum = Leptosphaeria nodorum test (wheat) / protective; format: in vivo; conditions: Parastagonospora nodorum, active compound concentration 500 ppm, evaluation 7-9 days after inoculation, read-out: efficacy
# Description: Thereafter, the plants are placed in a greenhouse at 90% relative atmospheric humidity and a temperature of 22° C.
# Venturia inaequalis = test: Venturia test (apple) / protective; format: in vivo; conditions: 240 h, active compound concentration 100 ppm, evaluation 10 days after inoculation, read-out: efficacy
# Description: After the spray coating has dried on, the plants are inoculated with an aqueous conidia suspension of the apple scab pathogen Venturia inaequalis and then remain for 1 day in an incubation cabinet at about 20° C. and 100% relative atmospheric humidity.
# Pyrenophora teres = Pyrenophora teres test (barley) / protective; format: in vivo; conditions: 192 h, active compound concentration 500 ppm, evaluation 8 days after inoculation, read-out: efficacy
# Description: After the spray coating has dried on, the plants are sprayed with a spore suspension of Pyrenophora teres. The plants remain in an incubation cabinet for 48 hours at 20° C. and 100% relative atmospheric humidity.
# Alternaria solani = test: Alternaria test (tomato) / protective; format: in vivo; conditions: 72 h, active compound concentration 100 ppm, evaluation 3 days after inoculation, read-out: efficacy
# Description: The plants are then placed in an incubation cabinet at about 20° C. and 100% relative atmospheric humidity.
# Cochliobolus miyabeanus = test: Cochliobolus test (rice) / protective; conditions: Bipolaris oryzae, in Oryza sativa, 96 h, read-out: efficacy
# Description: Cochliobolus Test (Rice)/Protective • Solvent: 28.5 parts by weight of acetone • Emulsifier: 1.5 parts by weight of alkylaryl polyglycol ether
# 1 day after the treatment, the plants are inoculated with an aqueous spore suspension of Cochliobolus miyabeanus. The plants are then placed in a greenhouse at 100% relative atmospheric humidity and 25° C.
# Evaluation is carried out 4 days after the inoculation.
# Pyricularia oryzae = test: whole plant or invertebrate; format: in vivo; conditions: 120 h, read-out: efficacy
# Rhizoctonia solani = test: Rhizoctonia test (rice) / protective; format: in vivo; conditions: 96 h, active compound concentration 250 ppm, evaluation 4 days after inoculation, read-out: efficacy
# Sphaerotheca fuliginea = test: Sphaerotheca test (cucumber) / protective; format: in vivo; conditions: Podosphaera fuliginea, 168 h, active compound concentration 500 ppm, evaluation 7 days after inoculation, read-out: efficacy
# Description: The plants are subsequently placed in a greenhouse at 70% relative atmospheric humidity and a temperature of 23° C.
# Fusarium graminearum = test: microbe, parasite or virus in culture; format: cell-based; conditions: 168 h, read-out: DON/AcDON-inhibitory activity
# [3] = logP by LC-MS on reversed-phase columns (C 18), method [c], neutral range pH 7.8; format: physicochemical; conditions: pH 7.8
# Description: as §1
# [c] The LC-MS determination in the neutral range is carried out at pH 7.8 using the mobile phases 0.001 molar aqueous ammonium bicarbonate solution and acetonitrile, linear gradient from 10% acetonitrile to 95% acetonitrile.
# [4] = growth, OD620 at the beginning and after 6 days, read-out: pI50 growth (converted)
SMILES,IC50 (Fusarium proliferatum; read-out: pI50 Fum),IC50 (Fusarium proliferatum; [4]),chromatographic logP [1],chromatographic logP [2],pest or weed control at 500 ppm (Leptosphaeria nodorum),pest or weed control at 100 ppm (Venturia inaequalis),pest or weed control at 500 ppm (Pyrenophora teres),pest or weed control at 100 ppm (Alternaria solani),pest or weed control at 250 ppm (Cochliobolus miyabeanus),pest or weed control at 250 ppm (Pyricularia oryzae),pest or weed control at 250 ppm (Rhizoctonia solani),pest or weed control at 500 ppm (Sphaerotheca fuliginea),"pI50 Fum (Fusarium proliferatum; fumonisin FB1 production, 6 days at 20° C., HPLC-MS/MS)","pI50 growth (Fusarium proliferatum; growth, OD620 at the beginning and after 6 days)",log p ([2]; pH 2.7),inhibition at 50 µM (Fusarium graminearum),chromatographic logP [3]
"COCC(C)Oc1ccc(Nc2ncc(Br)c(NC3CC3)n2)cc1 (stereo not drawn) [Example 1, 5-Bromo-N^4-cyclopropyl-N^2-{4-[(1-methoxypropan-2-yl)oxy]phenyl}pyrimidine-2,4-diamine]",1.26 µM,6.31 µM,1.83,1.83,≥ 70%,≥ 70%,,,,,,,,,,,
CCSC(C)c1cccc(Nc2ncc(Br)c(NC3CCC3)n2)c1 (stereo not drawn) [Example 12],10 µM,> 50.1 µM,,3.49,≥ 70%,≥ 70%,≥ 70%,≥ 70%,,,,,,,,,
COC(C)c1cccc(Nc2ncc(Cl)c(NC3CCC3)n2)c1 (stereo not drawn) [Example 15],,,,2.27,≥ 70%,≥ 70%,≥ 70%,≥ 70%,≥ 80%,≥ 80%,≥ 80%,≥ 70%,,,,,
COC(C)c1cccc(Nc2ncc(Br)c(NC3CCC3)n2)c1 (stereo not drawn) [Example 20],0.794 µM,3.98 µM,,2.46,≥ 70%,≥ 70%,≥ 70%,≥ 70%,≥ 80%,≥ 80%,≥ 80%,,,,,,
COCc1cccc(Nc2ncc(C(F)(F)F)c(NC3CCC3)n2)c1 [Example 24],2 µM,7.94 µM,,3.3,≥ 70%,,≥ 70%,,,≥ 80%,≥ 80%,,,,,,
"CCS(=O)(=O)c1cccc(Nc2ncc(Cl)c(NC3CCC3)n2)c1 [Example 27, 5-chloro-N^4-cyclobutyl-N^2-[3-(ethylsulphonyl)phenyl]pyrimidine-2,4-diamine]",2 µM,20 µM,2.21,2.21,≥ 70%,≥ 70%,,≥ 70%,≥ 80%,≥ 80%,,≥ 70%,,,,,
"CC[S+]([O-])c1cccc(Nc2ncc(Cl)c(NC3CCC3)n2)c1 (stereo not drawn) [Example 28, 5-Chloro-N^4-cyclobutyl-N^2-[3-(ethylsulphinyl)phenyl]pyrimidine-2,4-diamine]",3.98 µM,20 µM,1.76,1.76,≥ 70%,≥ 70%,≥ 70%,≥ 70%,≥ 80%,≥ 80%,≥ 80%,≥ 70%,,,,,
CC[S+]([O-])C(C)c1cccc(Nc2ncc(C(F)(F)F)c(NC3CC3)n2)c1 (stereo not drawn) [Example 45],,,,,,,,,,,,,5.0,4.7,2.2[b],,
CCCSc1cccc(Nc2ncc(Br)c(NC3CCC3)n2)c1 [Example 57],,,,3.96,≥ 70%,≥ 70%,≥ 70%,≥ 70%,≥ 80%,≥ 80%,≥ 80%,≥ 70%,,,,,
COCc1cccc(Nc2ncc(Cl)c(N(C)C3CC3)n2)c1 [Example 58],,,,2.7,≥ 70%,≥ 70%,≥ 70%,,,,,≥ 70%,,,,> 80%,3.76
COC(C)(C)c1cccc(Nc2ncc(Cl)c(NC3CC3)n2)c1 [Example 59],0.501 µM,3.16 µM,,2.16,≥ 70%,≥ 70%,≥ 70%,≥ 70%,≥ 80%,≥ 80%,≥ 80%,≥ 70%,,,,,3.5
COCCc1cccc(Nc2ncc(Cl)c(NC3CC3)n2)c1 [Example 60],0.631 µM,1.58 µM,,2.41,≥ 70%,≥ 70%,≥ 70%,≥ 70%,≥ 80%,≥ 80%,≥ 80%,≥ 70%,,,,,
"CCC(SC)c1cccc(Nc2ncc(Cl)c(NC3CC3)n2)c1 (stereo not drawn) [Example 61, 5-Chloro-N^4-cyclopropyl-N^2-{3-[1-(methylsulphanyl)propyl]phenyl}pyrimidine-2,4-diamine]",,,2.59,2.94,≥ 70%,≥ 70%,,≥ 70%,,≥ 80%,≥ 80%,≥ 70%,,,,> 80%,
CCC(SC)c1cccc(Nc2ncc(C(F)(F)F)c(NC3CC3)n2)c1 (stereo not drawn) [Example 62],15.8 µM,> 50.1 µM,,4.23,≥ 70%,≥ 70%,,≥ 70%,≥ 80%,≥ 80%,≥ 80%,≥ 70%,,,,,
COC(C)(C)Cc1cccc(Nc2ncc(Cl)c(NC3CC3)n2)c1 [Example 64],0.631 µM,5.01 µM,,2.21,≥ 70%,≥ 70%,≥ 70%,≥ 70%,,≥ 80%,,,,,,,3.81
CC[S+]([O-])C(C)c1cccc(Nc2ncc(Cl)c(NC3CCC3)n2)c1 (stereo not drawn) [Example 76],,,,1.68,≥ 70%,≥ 70%,≥ 70%,≥ 70%,≥ 80%,≥ 80%,≥ 80%,≥ 70%,,,,,2.53
CCS(=O)(=O)C(C)c1cccc(Nc2ncc(Cl)c(NC3CCC3)n2)c1 (stereo not drawn) [Example 77],,,,1.9,≥ 70%,≥ 70%,≥ 70%,≥ 70%,≥ 80%,≥ 80%,≥ 80%,≥ 70%,,,,,2.98
COCc1cccc(Nc2ncc(Cl)c(NCCF)n2)c1 [Example 138],,,,1.48,≥ 70%,≥ 70%,≥ 70%,≥ 70%,,≥ 80%,,≥ 70%,,,,> 80%,2.57
COCC(O)c1cccc(Nc2ncc(C(F)(F)F)c(NC3CC3)n2)c1 (stereo not drawn) [Example 195],,,,1.97,≥ 70%,,≥ 70%,,,≥ 80%,≥ 80%,≥ 70%,,,,> 80%,2.64
